Experimental data reported in ChEMBL document CHEMBL6115034, “Pseudonatural Flavonols as Novel Copper Ionophores for NAFLD Intervention via Synergistic Copper Delivery and Flavonoid Activity” (J Med Chem, 2025).
Active and inactive are the calls of the source. The calls are words filed in the database; no cut-off is given here.

Key:
HepG2 [1] = assay: Anti-NAFLD activity in palmitic acid human HepG2 NAFLD cell model assessed as upregulation of SOD1 expression at 0.5 uM incubated for 24 hrs in presence of CuCl2 by mRNA sequencing analysis; assay type: functional, cell-based
HeLa [2] = assay: Induction of copper transporting activity in human HeLa cells assessed as increase in intracellular copper levels incubated upto 24 hrs by ICP-MS analysis; assay type: functional, cell-based; conditions: dose 0.02-20 µM
[3] = Stability of compound in PBS buffer in presence of cysteine by UV-Vis spectrophotometer analysis; assay type: physicochemical
[4] = Toxicity in male C57BL/6 mouse assessed as change in ALT level at 125 mg/kg, po compound administrated as copper complex measured for 10 weeks; assay type: organism-based; conditions: in vivo, 1680 h
HepG2 [5] = assay: Anti-NAFLD activity in palmitic acid human HepG2 NAFLD cell model assessed as downregulation of STAT1 expression at 0.5 uM incubated for 24 hrs in presence of CuCl2 by mRNA sequencing analysis; assay type: functional, cell-based
HepG2 [6] = assay: Anti-NAFLD activity in palmitic acid human HepG2 NAFLD cell model assessed as downregulation of STEAP4 expression at 0.5 uM incubated for 24 hrs in presence of CuCl2 by mRNA sequencing analysis; assay type: functional, cell-based
[7] = Induction of copper transporting activity in human HeLa cells assessed as fold increase in intracellular copper levels at 2 uM incubated for 4 hrs by ICP-MS analysis; assay type: functional
HepG2 [8] = assay: Anti-NAFLD activity in palmitic acid human HepG2 NAFLD cell model assessed as downregulation of STAT3 expression at 0.5 uM incubated for 24 hrs in presence of CuCl2 by mRNA sequencing analysis; assay type: functional, cell-based
Mus musculus [9] = assay: Anti-NAFLD activity in high-fat diet-induced male C57BL/6J mouse model assessed as increase in E4P level in liver at 125 mg/kg, po compound administrated as copper complex measured for 10 weeks by LC-MS/MS analysis; assay type: functional, organism-based
HepG2 [10] = assay: Anti-NAFLD activity in palmitic acid human HepG2 NAFLD cell model assessed as effect on HMOX1 expression at 0.5 uM incubated for 24 hrs in presence of CuCl2 by mRNA sequencing analysis; assay type: functional, cell-based
[11] = Stability of compound in PBS buffer in presence of EDTA by UV-Vis spectrophotometer analysis; assay type: physicochemical
HepG2 [12] = assay: Anti-NAFLD activity in palmitic acid human HepG2 NAFLD cell model assessed as effect on IFIT3 expression at 0.5 uM incubated for 24 hrs in presence of CuCl2 by mRNA sequencing analysis; assay type: functional, cell-based
[13] = Toxicity in male C57BL/6 mouse assessed as spleen lesion at 125 mg/kg, po compound administrated as copper complex measured for 10 weeks; assay type: organism-based; conditions: in vivo, 1680 h
HeLa [14] = assay: Induction of copper transporting activity in human HeLa cells assessed as increase in intracellular copper levels by measuring change in fluorescence intensity; assay type: functional, cell-based
Mus musculus [15] = assay: Anti-NAFLD activity in high-fat diet-induced male C57BL/6J mouse model assessed as increase in Ru5P level in liver at 125 mg/kg, po compound administrated as copper complex measured for 10 weeks by LC-MS/MS analysis; assay type: functional, organism-based
Mus musculus [16] = assay: Anti-NAFLD activity in high-fat diet-induced male C57BL/6J mouse model assessed as increase in F6P level in liver at 125 mg/kg, po compound administrated as copper complex measured for 10 weeks by LC-MS/MS analysis; assay type: functional, organism-based
Mus musculus [17] = assay: Anti-NAFLD activity in high-fat diet-induced male C57BL/6J mouse model assessed as increase in S7P level in liver at 125 mg/kg, po compound administrated as copper complex measured for 10 weeks by LC-MS/MS analysis; assay type: functional, organism-based
Mus musculus [18] = assay: Anti-NAFLD activity in high-fat diet-induced male C57BL/6J mouse model assessed as increase in malic acid level at 125 mg/kg, po compound administrated as copper complex measured for 10 weeks by LC-MS/MS analysis; assay type: functional, organism-based
HepG2 [19] = assay: Anti-NAFLD activity in palmitic acid human HepG2 NAFLD cell model assessed as upregulation of fatty acid metabolism related genes at 0.5 uM incubated for 24 hrs in presence of CuCl2 by mRNA sequencing analysis; assay type: functional, cell-based
Mus musculus [20] = assay: Anti-NAFLD activity in high-fat diet-induced male C57BL/6J mouse model assessed as increase in copper level in liver at 125 mg/kg, po compound administrated as copper complex measured for 10 weeks by ICP-MS analysis; assay type: functional, organism-based
HepG2 [21] = assay: Anti-NAFLD activity in palmitic acid human HepG2 NAFLD cell model assessed as decrease in lipid droplet level at 5 uM measured at 24 hrs by Oil Red O staining based assay relative to control; assay type: functional; parameters: scale not given: the % may be the effect or the level left
HepG2 [22] = assay: Anti-NAFLD activity in palmitic acid human HepG2 NAFLD cell model assessed as upregulation of MT1X expression at 0.5 uM incubated for 24 hrs in presence of CuCl2 by mRNA sequencing analysis; assay type: functional, cell-based
HepG2 [23] = assay: Anti-NAFLD activity in palmitic acid human HepG2 NAFLD cell model assessed as upregulation of CYP4F3 expression at 0.5 uM incubated for 24 hrs in presence of CuCl2 by mRNA sequencing analysis; assay type: functional, cell-based
Mus musculus [24] = assay: Anti-NAFLD activity in high-fat diet-induced male C57BL/6J mouse model assessed as increase in R5P level in liver at 125 mg/kg, po compound administrated as copper complex measured for 10 weeks by LC-MS/MS analysis; assay type: functional, organism-based
HepG2 [25] = assay: Anti-NAFLD activity in palmitic acid human HepG2 NAFLD cell model assessed as increase in ROS level at 5 uM compound administrated as copper complex measured at 24 hrs by DCFH-DA probe based flow cytometry analysis; assay type: functional
[26] = Stability of the compound in cell culture medium containing 10% fetal bovine serum in presence of histidine by UV-Vis spectrophotometer analysis; assay type: physicochemical, cell-free; conditions: cattle
Mus musculus [27] = assay: Anti-NAFLD activity in high-fat diet-induced male C57BL/6J mouse model assessed as increase in glucose level serum at 125 mg/kg, po compound administrated as copper complex measured for 10 weeks; assay type: functional, organism-based
HepG2 [28] = assay: Anti-NAFLD activity in palmitic acid human HepG2 NAFLD cell model assessed as downregulation of STAT2 expression at 0.5 uM incubated for 24 hrs in presence of CuCl2 by mRNA sequencing analysis; assay type: functional, cell-based
Mus musculus [29] = assay: Anti-NAFLD activity in high-fat diet-induced male C57BL/6J mouse model assessed as decrease in 3-phosphoglycerate at 125 mg/kg, po compound administrated as copper complex measured for 10 weeks by LC-MS/MS analysis; assay type: functional, organism-based
Mus musculus [30] = assay: Anti-NAFLD activity in high-fat diet-induced male C57BL/6J mouse model assessed as increase in copper level in serum at 125 mg/kg, po compound administrated as copper complex measured for 10 weeks by ICP-MS analysis; assay type: functional, organism-based
HepG2 [31] = assay: Anti-NAFLD activity in palmitic acid human HepG2 NAFLD cell model assessed as upregulation of TXN expression at 0.5 uM incubated for 24 hrs in presence of CuCl2 by mRNA sequencing analysis; assay type: functional, cell-based

Q: Which Activity (HepG2 [1]) does the source give for `O=c1c(O)c(-c2ccc3cccc(O)c3n2)oc2ccccc12` here?
A: Active

Q: What about the Activity (HeLa [2]) of the same molecule?
A: Dose-dependent-effect

Q: What about the Stability [3] of the same molecule?
A: Stable

Q: What about the Activity [4] of the same molecule?
A: Non-toxic

Q: And the Activity (HepG2 [5])?
A: Active

Q: What about the Activity (HepG2 [6]) of the same molecule?
A: Active

Q: What about the “fold change (FC)” value [7] of the same molecule?
A: ~5

Q: What about the Activity (HepG2 [8]) of the same molecule?
A: Active

Q: What about the Activity (Mus musculus [9]) of the same molecule?
A: Active

Q: And the Activity (HepG2 [10])?
A: Active

Q: And the Stability [11]?
A: Stable

Q: What about the Activity (HepG2 [12]) of the same molecule?
A: Active

Q: What about the Activity [13] of the same molecule?
A: Non-toxic

Q: And the Activity (HeLa [14])?
A: Active

Q: And the Activity (Mus musculus [15])?
A: Active

Q: And the Activity (Mus musculus [16])?
A: Active

Q: What about the Activity (Mus musculus [17]) of the same molecule?
A: Active

Q: And the Activity (Mus musculus [18])?
A: Active

Q: And the Activity (HepG2 [19])?
A: Active

Q: And the Activity (Mus musculus [20])?
A: Active

Q: And the Activity (HepG2 [21])?
A: 61%

Q: And the Activity (HepG2 [22])?
A: Active

Q: And the Activity (HepG2 [23])?
A: Active

Q: And the Activity (Mus musculus [24])?
A: Active

Q: And the Activity (HepG2 [25])?
A: Active

Q: And the Stability [26]?
A: Stable

Q: What about the Activity (Mus musculus [27]) of the same molecule?
A: Active

Q: What about the Activity (HepG2 [28]) of the same molecule?
A: Active

Q: What about the Activity (Mus musculus [29]) of the same molecule?
A: Active

Q: And the Activity (Mus musculus [30])?
A: Active

Q: And the Activity (HepG2 [31])?
A: Active
